{
  "source": "patent US11986540B2",
  "about": "“Compositions including pafolacianine for the identification of malignant lesions” (ON TARGET LABORATORIES, LLC., priority 2022, dated 2024)",
  "assay": "Repeat once-weekly IV dose toxicokinetics in rats",
  "type": "in vivo",
  "conditions": "for clearance / half-life / Vd / AUC(0-inf) / C0: rat, in vivo, iv; for half-life: read-out: T1/2 (converted); for Vd: read-out: Vss",
  "experimental": "[…] On both Day 1 and Day 13, increases in pafolacianine exposure (AUCinf) were trending slightly greater than dose proportional, noting that sparse blood sampling was employed so the variability in the AUCs could not be assessed. […] CL was slow (relative to hepatic blood flow) and Vss was moderate. Mean T1/2 ranged from approximately 6 to 11 hours.",
  "key": {"[1]": {"conditions": "female, 30.8 mg/kg, rats F, 30.8 mg/kg once-weekly IV, Day 0"}, "[2]": {"conditions": "female, 30.8 mg/kg, rats F, 30.8 mg/kg once-weekly IV, Day 13"}, "[3]": {"conditions": "female, 46.3 mg/kg, rats F, 46.3 mg/kg once-weekly IV, Day 0"}, "[4]": {"conditions": "female, 46.3 mg/kg, rats F, 46.3 mg/kg once-weekly IV, Day 13"}, "[5]": {"conditions": "male, 3.1 mg/kg, rats M, 3.1 mg/kg once-weekly IV, Day 0"}, "[6]": {"conditions": "male, 3.1 mg/kg, rats M, 3.1 mg/kg once-weekly IV, Day 13"}, "[7]": {"conditions": "male, 30.8 mg/kg, rats M, 30.8 mg/kg once-weekly IV, Day 0"}, "[8]": {"conditions": "male, 30.8 mg/kg, rats M, 30.8 mg/kg once-weekly IV, Day 13"}, "[9]": {"conditions": "male, 46.3 mg/kg, rats M, 46.3 mg/kg once-weekly IV, Day 0"}, "[10]": {"conditions": "male, 46.3 mg/kg, rats M, 46.3 mg/kg once-weekly IV, Day 13"}, "[11]": {"conditions": "rats F, 3.1 mg/kg once-weekly IV, Day 13"}, "[12]": {"conditions": "rats F, 30.8 mg/kg once-weekly IV, Day 13"}, "[13]": {"conditions": "rats F, 46.3 mg/kg once-weekly IV, Day 13"}, "[14]": {"conditions": "rats M, 3.1 mg/kg once-weekly IV, Day 13"}, "[15]": {"conditions": "rats M, 30.8 mg/kg once-weekly IV, Day 13"}, "[16]": {"conditions": "rats M, 46.3 mg/kg once-weekly IV, Day 13"}},
  "note": "Where two headings read alike, the source gives them in different places.",
  "data": [
    {"smiles": "CC1(C)C(=CC=C2CCCC(C=CC3=[N+](CCCCS(=O)(=O)[O-])c4ccc(S(=O)(=O)O)cc4C3(C)C)=C2Oc2ccc(CC(NC(=O)c3ccc(NCc4cnc5nc(N)[nH]c(=O)c5n4)cc3)C(=O)O)cc2)N(CCCCS(=O)(=O)O)c2ccc(S(=O)(=O)O)cc21", "note": "(stereo not shown) [pafolacianine]", "values": [
      {"measurement": "clearance", "setting": "[1]", "value": 2.17, "unit": "mL/min/kg"},
      {"measurement": "half-life", "setting": "[1]", "value": 8.69, "unit": "h"},
      {"measurement": "Vd", "setting": "[1]", "value": 1.14, "unit": "L/kg"},
      {"measurement": "AUC(0-inf)", "setting": "[2]", "value": 291, "unit": "µg·h/mL"},
      {"measurement": "C0", "setting": "[2]", "value": 105, "unit": "µg/mL"},
      {"measurement": "clearance", "setting": "[2]", "value": 1.77, "unit": "mL/min/kg"},
      {"measurement": "half-life", "setting": "[2]", "value": 6.06, "unit": "h"},
      {"measurement": "Vd", "setting": "[2]", "value": 0.773, "unit": "L/kg"},
      {"measurement": "AUC(0-inf)", "setting": "[3]", "value": 361, "unit": "µg·h/mL"},
      {"measurement": "C0", "setting": "[3]", "value": 245, "unit": "µg/mL"},
      {"measurement": "clearance", "setting": "[3]", "value": 2.13, "unit": "mL/min/kg"},
      {"measurement": "half-life", "setting": "[3]", "value": 9.76, "unit": "h"},
      {"measurement": "Vd", "setting": "[3]", "value": 1.29, "unit": "L/kg"},
      {"measurement": "AUC(0-inf)", "setting": "[4]", "value": 387, "unit": "µg·h/mL"},
      {"measurement": "C0", "setting": "[4]", "value": 240, "unit": "µg/mL"},
      {"measurement": "clearance", "setting": "[4]", "value": 2, "unit": "mL/min/kg"},
      {"measurement": "half-life", "setting": "[4]", "value": 5.76, "unit": "h"},
      {"measurement": "Vd", "setting": "[4]", "value": 0.806, "unit": "L/kg"},
      {"measurement": "AUC(0-inf)", "setting": "[5]", "value": 19.2, "unit": "µg·h/mL"},
      {"measurement": "C0", "setting": "[5]", "value": 27.7, "unit": "µg/mL"},
      {"measurement": "clearance", "setting": "[5]", "value": 2.68, "unit": "mL/min/kg"},
      {"measurement": "half-life", "setting": "[5]", "value": 8.25, "unit": "h"},
      {"measurement": "Vd", "setting": "[5]", "value": 1.24, "unit": "L/kg"},
      {"measurement": "AUC(0-inf)", "setting": "[6]", "value": 21, "unit": "µg·h/mL"},
      {"measurement": "C0", "setting": "[6]", "value": 24, "unit": "µg/mL"},
      {"measurement": "clearance", "setting": "[6]", "value": 2.47, "unit": "mL/min/kg"},
      {"measurement": "half-life", "setting": "[6]", "value": 9.67, "unit": "h"},
      {"measurement": "Vd", "setting": "[6]", "value": 1.5, "unit": "L/kg"},
      {"measurement": "AUC(0-inf)", "setting": "[7]", "value": 235, "unit": "µg·h/mL"},
      {"measurement": "C0", "setting": "[7]", "value": 165, "unit": "µg/mL"},
      {"measurement": "clearance", "setting": "[7]", "value": 2.18, "unit": "mL/min/kg"},
      {"measurement": "half-life", "setting": "[7]", "value": 10.9, "unit": "h"},
      {"measurement": "Vd", "setting": "[7]", "value": 1.53, "unit": "L/kg"},
      {"measurement": "AUC(0-inf)", "setting": "[8]", "value": 329, "unit": "µg·h/mL"},
      {"measurement": "C0", "setting": "[8]", "value": 202, "unit": "µg/mL"},
      {"measurement": "clearance", "setting": "[8]", "value": 1.56, "unit": "mL/min/kg"},
      {"measurement": "half-life", "setting": "[8]", "value": 10.4, "unit": "h"},
      {"measurement": "Vd", "setting": "[8]", "value": 1.15, "unit": "L/kg"},
      {"measurement": "AUC(0-inf)", "setting": "[9]", "value": 342, "unit": "µg·h/mL"},
      {"measurement": "C0", "setting": "[9]", "value": 263, "unit": "µg/mL"},
      {"measurement": "clearance", "setting": "[9]", "value": 2.27, "unit": "mL/min/kg"},
      {"measurement": "half-life", "setting": "[9]", "value": 7.99, "unit": "h"},
      {"measurement": "Vd", "setting": "[9]", "value": 1.41, "unit": "L/kg"},
      {"measurement": "AUC(0-inf)", "setting": "[10]", "value": 380, "unit": "µg·h/mL"},
      {"measurement": "C0", "setting": "[10]", "value": 269, "unit": "µg/mL"},
      {"measurement": "clearance", "setting": "[10]", "value": 2.03, "unit": "mL/min/kg"},
      {"measurement": "half-life", "setting": "[10]", "value": 7.35, "unit": "h"},
      {"measurement": "Vd", "setting": "[10]", "value": 1.12, "unit": "L/kg"},
      {"measurement": "DN AUCinf", "setting": "rats F, 3.1 mg/kg once-weekly IV, Day 0", "value": "6.15 (μg · h/mL)/(mg/kg)"},
      {"measurement": "Accumulation Ratio", "setting": "[11]", "value": 0.874},
      {"measurement": "DN AUCinf", "setting": "[11]", "value": "5.37 (μg · h/mL)/(mg/kg)"},
      {"measurement": "DN AUCinf", "setting": "rats F, 30.8 mg/kg once-weekly IV, Day 0", "value": "7.70 (μg · h/mL)/(mg/kg)"},
      {"measurement": "Accumulation Ratio", "setting": "[12]", "value": 1.23},
      {"measurement": "DN AUCinf", "setting": "[12]", "value": "9.45 (μg · h/mL)/(mg/kg)"},
      {"measurement": "DN AUCinf", "setting": "rats F, 46.3 mg/kg once-weekly IV, Day 0", "value": "7.80 (μg · h/mL)/(mg/kg)"},
      {"measurement": "Accumulation Ratio", "setting": "[13]", "value": 1.07},
      {"measurement": "DN AUCinf", "setting": "[13]", "value": "8.35 (μg · h/mL)/(mg/kg)"},
      {"measurement": "DN AUCinf", "setting": "rats M, 3.1 mg/kg once-weekly IV, Day 0", "value": "6.19 (μg · h/mL)/(mg/kg)"},
      {"measurement": "Accumulation Ratio", "setting": "[14]", "value": 1.09},
      {"measurement": "DN AUCinf", "setting": "[14]", "value": "6.76 (μg · h/mL)/(mg/kg)"},
      {"measurement": "DN AUCinf", "setting": "rats M, 30.8 mg/kg once-weekly IV, Day 0", "value": "7.63 (μg · h/mL)/(mg/kg)"},
      {"measurement": "Accumulation Ratio", "setting": "[15]", "value": 1.40},
      {"measurement": "DN AUCinf", "setting": "[15]", "value": "10.7 (μg · h/mL)/(mg/kg)"},
      {"measurement": "DN AUCinf", "setting": "rats M, 46.3 mg/kg once-weekly IV, Day 0", "value": "7.39 (μg · h/mL)/(mg/kg)"},
      {"measurement": "Accumulation Ratio", "setting": "[16]", "value": 1.11},
      {"measurement": "DN AUCinf", "setting": "[16]", "value": "8.20 (μg · h/mL)/(mg/kg)"},
      {"measurement": "accumulation or changes in TK parameters after repeated dosing", "setting": "rats, once-weekly dosing for 3 weeks", "value": "no accumulation or changes in TK parameters were evident"}
    ]}
  ]
}
